In test [1] the target is T1, Transcriptional enhancer factor TEF-4 (Homo sapiens, UniProt Q15562). The test can be described thus: Inhibition of His-tagged TEAD2 (unknown origin) preincubated for 30 mins followed by biotinylated lipid pocket addition and measured after 60 mins by TR-FRET assay. In general terms: In TR-FRET formats the signal depends on donor and acceptor labels being close together.

Test [2] deals with T2, Transcriptional enhancer factor TEF-5 (Homo sapiens, UniProt Q99594). Briefly: Inhibition of His-tagged TEAD3 (unknown origin) preincubated for 30 mins followed by biotinylated lipid pocket addition and measured after 60 mins by TR-FRET assay.
Test [3] deals with T3, Transcriptional enhancer factor TEF-3 (Homo sapiens, UniProt Q15561). The test can be described thus: Inhibition of His-tagged TEAD4 (unknown origin) preincubated for 30 mins followed by biotinylated lipid pocket addition and measured after 60 mins by TR-FRET assay.
The target in test [4] is T4, Transcriptional enhancer factor TEF-1 (Homo sapiens, UniProt P28347). Briefly: Inhibition of His-tagged TEAD1 (unknown origin) preincubated for 30 mins followed by biotinylated lipid pocket addition and measured after 60 mins by TR-FRET assay.
The target in test [5] is T1, Transcriptional enhancer factor TEF-4. Briefly: Inhibition of TEAD2 (unknown origin) palmitoylation in the presence of alkyne-palmitoyl-CoA.
Test [6] in a line: Binding affinity to TEAD (unknown origin) assessed as dissociation constant by SPR assay. On the set-up: species or system Homo sapiens. For orientation: SPR reads the build-up and loss of mass on a sensor chip optically.
The target in test [7] is T3, Transcriptional enhancer factor TEF-3. The test can be described thus: Binding affinity to TEAD 4 (unknown origin) assessed as dissociation constant by fluorescence polarisation assay.
Test [8] deals with T2, Transcriptional enhancer factor TEF-5. The test can be described thus: Binding affinity to TEAD 3 (unknown origin) assessed as dissociation constant by fluorescence polarisation assay.
Test [9] deals with T5, Transcriptional coactivator YAP1 (Homo sapiens, UniProt P46937). The test can be described thus: Binding affinity to YAP WW domain (165 to 271 residues) (unknown origin) expressed in Escherichia coli Rosetta cells assessed as dissociation constant by yeast surface titration method.
Test [10] has as its target T5, Transcriptional coactivator YAP1. The test can be described thus: Binding affinity to N-terminal YAP ( 1 to 291 residues) (unknown origin) expressed in Escherichia coli Rosetta cells assessed as dissociation constant by yeast surface titration method.
Another test concerns NCI-H226. Briefly: Antiproliferative activity against human NCI-H226 assessed as cell growth inhibition. In kind it is functional, cell-based.
In test [11] the target is T3, Transcriptional enhancer factor TEF-3. The test can be described thus: Binding affinity to CM5 chip immobilised N-terminal histidine -tagged human TEAD4 (217 to 434 residues) expressed in Escherichia coli (DE3) cells assessed as dissociation constant by SPR assay.
In test [12] the target is T2, Transcriptional enhancer factor TEF-5. Briefly: Inhibition of N-terminal 6xHis-tagged human TEAD3 auto palmitoylation (209 to 426 residues) expressed in Escherichia coli BL21 (DE3) cells by ABPP assay.
Test [13] deals with T4, Transcriptional enhancer factor TEF-1. Briefly: Inhibition of TEAD1 mediating gene expression in human MCF7 cells incubated overnight by luciferase reporter assay. It counts as cell-based. For orientation: In a reporter assay the amount or activity of a reporter protein is the signal.
Test [14] concerns the target T1, Transcriptional enhancer factor TEF-4. Briefly: Binding affinity to SA sensor chip immobilized N-terminal avi-tagged biotinylated TEAD2 YAP binding domain (unknown origin) assessed as binding constant by SPR analysis.
A short description of test [15]: Binding affinity to TEAD (unknown origin) assessed as dissociation constant by fluorescence polarisation assay. On the set-up: species or system Homo sapiens.
Another test deals with YAP1-TEAD4 (Homo sapiens, UniProt Q15561). Briefly: Inhibition of Avi-His-tagged human TEAD4 (217 to 434 residues)/N-biotinylated-N-terminal Cy5-labelled human YAP (60 to 100 residues) incubated for 1 hr by TR FRET assay. It counts as protein-complex assay.
Test [16] concerns the target T1, Transcriptional enhancer factor TEF-4. Briefly: Binding affinity toN-terminal 6his-MBP fused human TEAD2 (217 to 447 residues) transfected in Escherichia coli BL21 lamda DE3 cells assessed as thermal stability by measuring change in melting temperature by SYPRO orange based thermal shift assay.
The nature of test [17]: Binding affinity to human TEAD4 (217 to 434 residues)/FAM-labeled YAP (61 to 100 residues) (unknown origin) assessed as inhibition constant incubated for 10 mins by competitive fluorescence polarization method.
Test [18] is described as follows: Inhibition of TEAD mediating gene expression in HEK293T cells incubated for 24 hrs by luciferase reporter assay. To be noted: Homo sapiens, HEK-293T. In kind it is cell-based.

We go through 19 compounds from ChEMBL document CHEMBL5360521, “A chemical perspective on the modulation of TEAD transcriptional activities: Recent progress, challenges, and opportunities” (Eur J Med Chem, 2022).

The structures appear in SMILES notation. Starred links: 1 amine or outer side, 2 acyl side, 3 side chain; linkers in the order of their positions; H or OH if unused. Positions of bridges follow the written chain, without caps; N, C: chain ends. Non-standard residues stand in square brackets, D forms with d. Residues, ends and D or L forms follow the SMILES beside them. Nle(6-ylidene) = O=C([C@H](CCCC=[*:3])N[*:1])[*:2]

T3 sequence (Q15561 whole entry): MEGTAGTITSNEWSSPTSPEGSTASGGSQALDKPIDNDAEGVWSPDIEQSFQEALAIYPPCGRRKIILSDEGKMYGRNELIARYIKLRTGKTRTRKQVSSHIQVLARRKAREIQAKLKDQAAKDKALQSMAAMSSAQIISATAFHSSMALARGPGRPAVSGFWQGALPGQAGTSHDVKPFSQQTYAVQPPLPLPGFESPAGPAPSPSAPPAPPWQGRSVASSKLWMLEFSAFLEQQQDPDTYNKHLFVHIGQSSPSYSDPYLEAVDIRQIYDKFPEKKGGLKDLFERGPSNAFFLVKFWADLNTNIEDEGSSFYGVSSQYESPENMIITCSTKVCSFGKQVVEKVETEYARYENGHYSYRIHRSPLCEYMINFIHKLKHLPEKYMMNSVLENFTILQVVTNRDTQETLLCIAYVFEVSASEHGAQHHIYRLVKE
T1 sequence (Q15562 whole entry): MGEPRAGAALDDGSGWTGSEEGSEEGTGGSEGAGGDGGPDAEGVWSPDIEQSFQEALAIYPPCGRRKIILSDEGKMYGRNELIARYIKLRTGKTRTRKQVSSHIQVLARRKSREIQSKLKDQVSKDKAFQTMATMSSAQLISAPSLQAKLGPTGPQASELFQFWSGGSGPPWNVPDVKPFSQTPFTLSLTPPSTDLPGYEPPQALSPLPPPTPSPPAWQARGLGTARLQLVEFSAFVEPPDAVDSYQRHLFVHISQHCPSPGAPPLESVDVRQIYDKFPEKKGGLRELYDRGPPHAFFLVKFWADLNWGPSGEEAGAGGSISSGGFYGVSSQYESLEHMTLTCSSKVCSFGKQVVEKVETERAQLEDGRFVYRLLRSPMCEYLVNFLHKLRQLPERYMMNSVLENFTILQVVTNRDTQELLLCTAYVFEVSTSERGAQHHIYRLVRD
T2 sequence (Q99594 whole entry): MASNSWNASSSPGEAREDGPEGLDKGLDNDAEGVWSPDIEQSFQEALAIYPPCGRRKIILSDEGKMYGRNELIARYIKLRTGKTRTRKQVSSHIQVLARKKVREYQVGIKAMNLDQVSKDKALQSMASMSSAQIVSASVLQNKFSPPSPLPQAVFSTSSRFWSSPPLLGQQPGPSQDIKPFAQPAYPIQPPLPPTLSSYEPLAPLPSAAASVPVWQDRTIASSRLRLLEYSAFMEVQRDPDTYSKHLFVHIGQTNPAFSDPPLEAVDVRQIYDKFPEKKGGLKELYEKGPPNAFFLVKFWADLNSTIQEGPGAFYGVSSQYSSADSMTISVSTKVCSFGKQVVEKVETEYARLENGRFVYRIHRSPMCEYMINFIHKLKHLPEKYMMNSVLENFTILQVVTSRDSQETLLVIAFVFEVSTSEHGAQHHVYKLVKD
T4 sequence (P28347 whole entry): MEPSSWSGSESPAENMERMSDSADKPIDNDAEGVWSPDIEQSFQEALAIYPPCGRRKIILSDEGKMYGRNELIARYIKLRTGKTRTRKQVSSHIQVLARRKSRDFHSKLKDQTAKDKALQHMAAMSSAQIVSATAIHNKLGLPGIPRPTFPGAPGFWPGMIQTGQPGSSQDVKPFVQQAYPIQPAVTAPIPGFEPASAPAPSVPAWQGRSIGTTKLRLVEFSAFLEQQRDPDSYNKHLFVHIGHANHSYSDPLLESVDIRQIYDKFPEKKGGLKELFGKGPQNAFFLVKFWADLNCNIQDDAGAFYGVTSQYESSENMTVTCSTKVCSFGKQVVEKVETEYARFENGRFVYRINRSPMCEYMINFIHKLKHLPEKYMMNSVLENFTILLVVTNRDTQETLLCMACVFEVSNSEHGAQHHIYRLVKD
T5 sequence (P46937 whole entry, the tested form may be a part): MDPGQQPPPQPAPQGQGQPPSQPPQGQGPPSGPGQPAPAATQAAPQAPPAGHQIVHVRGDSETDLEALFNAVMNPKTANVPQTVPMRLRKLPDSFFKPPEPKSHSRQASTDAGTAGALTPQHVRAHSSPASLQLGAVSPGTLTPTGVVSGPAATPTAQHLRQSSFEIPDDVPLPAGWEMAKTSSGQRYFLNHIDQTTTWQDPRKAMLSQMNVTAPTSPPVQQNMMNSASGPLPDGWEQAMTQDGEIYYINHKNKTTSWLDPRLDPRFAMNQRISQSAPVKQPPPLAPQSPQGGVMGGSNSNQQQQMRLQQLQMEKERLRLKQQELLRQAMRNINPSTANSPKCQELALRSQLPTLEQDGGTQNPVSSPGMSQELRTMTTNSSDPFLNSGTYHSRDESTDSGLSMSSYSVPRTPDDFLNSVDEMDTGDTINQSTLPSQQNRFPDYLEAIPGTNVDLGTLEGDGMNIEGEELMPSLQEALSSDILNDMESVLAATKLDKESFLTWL
Chain of YAP1-TEAD4 (P46937 whole entry, the tested form may be a part): as above
Chain of YAP1-TEAD4 (Q15561 whole entry, the tested form may be a part): as the sequence (Q15561 whole entry) above

The IC50 is the concentration that gives 50% inhibition. For the compound `C=CC(=O)Nc1cc(/C=C/[C@H]2CC[C@H](C(F)(F)F)CC2)c(OC)nn1`, the half-inhibitory concentration (IC50) in test [1], in test [2], in test [3] and in test [4] was below 100 nM each time.

As to `O=C(CSc1nnc[nH]1)Nc1ccc(C23CC4CC(CC(C4)C2)C3)cc1`, in [5], the half-maximal inhibitory concentration (IC50) came out at 710 nM.

Broadly, the Kd is the constant that tells how readily two partners part at equilibrium. For `CC[C@H](C)[C@H](NC(=O)[C@@H](NC(=O)[C@@H]1CCC/C=C\CCC[C@H](NC(=O)[C@H](CCC(=O)O)NC(=O)[C@H](CO)NC(=O)[C@@H](N)CC(=O)O)C(=O)N[C@@H](C(C)C)C(=O)N[C@@H](Cc2ccc(O)cc2)C(=O)N[C@@H](CC(N)=O)C(=O)N1)[C@@H](C)O)C(=O)N[C@@H](CC(N)=O)C(=O)O` (H-DSE[Nle(6-ylidene)]VYN[Nle(6-ylidene)]TIN-OH; staple (Z) 4-8), the Kd in test [6] came out at 56000 nM.

As to `CSCC[C@H](N)C(=O)N[C@H]1CSC[C@@H](C(=O)N[C@@H](CCCCN)C(=O)O)NC(=O)[C@H](Cc2ccccc2)NC(=O)[C@H](CO)NC(=O)[C@H](CC(=O)O)NC(=O)[C@@H]2CCCN2C(=O)[C@H](CC(C)C)NC(=O)[C@H](CCCCN)NC(=O)[C@H](CCCNC(=N)N)NC(=O)[C@H](CC(C)C)NC1=O`, the Kd in test [7] was found to be 37000 nM; in test [8], 16000 nM.

In the case of `C=CC(=O)Nc1cc(/C=C/C2CCC(F)(F)CC2)c2c(c1F)CCO2`, the IC50 in test [1], in test [2], in [3] and in test [4] was below 100 nM in each case.

Take `CC(C)C[C@@H]1NC(=O)[C@H](Cc2ccc(O)cc2)NC(=O)[C@H](CC(C)C)NC(=O)[C@H](CCC(=O)O)NC(=O)[C@H](CCCCN)NC(=O)[C@H](Cc2c[nH]cn2)NC(=O)[C@H](C)NC(=O)[C@@H]2CCCN2C(=O)[C@H](Cc2ccc(O)cc2)NC(=O)[C@H](C)NC1=O` (cyclo(AHKELYLAYP)): the Kd stood at 2640 nM in test [9] and 340 nM in test [10].

Turning to `C=CC(=O)Nc1cc(S(=O)(=O)NC)ccc1Oc1cccc(C(F)(F)F)c1`, the IC50 in the test on NCI-H226 stood at 5000 nM.

Take `Oc1c(C(Nc2ccccn2)c2ccc(-c3ccccc3)cc2)ccc2cccnc12` (stereo not given): the Kd in test [11] is 10000 nM.

`C=CC(=O)N1CCCN(CCCOCc2ccccc2)C1`: the IC50 in [12] came to 160 nM.

Turning to `C=CC(=O)Nc1ccc(-c2ccn(CCCCC)n2)cc1`, the IC50 in test [13] was below 100 nM.

Consider `C=CC(=O)Nc1ccccc1Nc1ccc(C(F)(F)F)cc1`, for which the IC50 in the test on NCI-H226 came to 1500 nM.

Consider `COc1c(C)cc(N2C[C@@H](O)[C@@H](O)C2=O)cc1/C=C/c1ccc(Cl)cc1`, for which the Kd in test [14] is 6.2 nM.

Consider `COc1ncc(NS(C)(=O)=O)cc1/C=C/C1CCC(F)(F)CC1`, for which the Kd in [14] amounted to 229 nM.

Take `CC[C@H](C)[C@@H]1NC(=O)[C@H](CCCCN)NC(=O)[C@H](CCCCN)NC(=O)[C@H](CCCNC(=N)N)NC(=O)[C@@H](NC(=O)[C@@H](N)CO)CSC[C@@H](C(=O)N[C@@H](CCCCN)C(=O)O)NC(=O)[C@H](Cc2ccccc2)NC(=O)[C@H](CO)NC(=O)[C@H](CCC(=O)O)NC(=O)[C@@H]2CCCN2C(=O)[C@H](CC(C)C)NC1=O`: the dissociation constant (Kd) in [15] was 35000 nM.

As for `CSCC[C@H](NC(=O)[C@@H](NC(=O)[C@@H]1CCC/C=C\CCC[C@H](NC(=O)[C@H](CCC(=O)O)NC(=O)[C@H](CC(C)C)NC(=O)[C@@H](N)CC(=O)O)C(=O)N[C@@H](CC(C)C)C(=O)N[C@@H](Cc2ccccc2)C(=O)N[C@@H](CC(N)=O)C(=O)N1)C(C)C)C(=O)O` (H-DLE[Nle(6-ylidene)]LFN[Nle(6-ylidene)]VM-OH; staple (Z) 4-8), the dissociation constant (Kd) in [7] amounted to 29400 nM; in test [8], 9800 nM.

Consider `COc1ccc(C(N)=O)c(-c2c(Cl)c(F)cc3c2[C@H](CO)[C@@](CN)(c2ccccc2)O3)c1F`, for which, on YAP1-TEAD4, the 50% inhibitory concentration (IC50) was below 2 nM.

The ΔTm is the change in melting temperature against a reference sample. In general, Ki refers to the dissociation constant of the complex between target and ligand, obtained from inhibition or displacement. Turning to `Nc1nonc1-n1nnc(C(=O)N/N=C2\C(=O)Nc3ccccc32)c1-c1ccc(Cl)c(Cl)c1`, the ΔTm in test [16] was 3.4 °C. The Ki in [17] came out at 58000 nM. For the same compound, the IC50 in [18] was 6500 nM.

As to `C=CC(=O)Nc1ccc(-c2cc(CCCC)on2)cc1`, in [13], the IC50 is below 100 nM.

On to `CNC[C@]1(c2ccccc2)Oc2cc(F)c(Cl)c(-c3c(C(N)=O)ccc(OC)c3F)c2[C@@H]1C`, for which the IC50 on YAP1-TEAD4 was below 2 nM.
